From the NIST ThermoML archive (doi:10.1021/je500977g)

Assay: mn = molality of the nth substance listed, in mol/kg
Conditions: Liquid

C[N+](C)(C)[O-] [trimethylamine oxide] + O
mass density [kg/m3]
Conditions	298.15 K	308.15 K
101 kPa, Vibrating tube method, m1 = 0.0875	–	994.21
101 kPa, Vibrating tube method, m1 = 0.1707	–	994.38
101 kPa, Vibrating tube method, m1 = 0.2465	–	994.54
101 kPa, Vibrating tube method, m1 = 0.3259	–	994.71
101 kPa, Vibrating tube method, m1 = 0.4018	–	994.88
101 kPa, Vibrating tube method, m1 = 0.5862	–	995.31
101 kPa, Vibrating tube method, m1 = 0.7963	–	995.8
101 kPa, Vibrating tube method, m1 = 1.039	–	996.41
101 kPa, Vibrating tube method, m1 = 1.373	–	997.27
101 kPa, Vibrating tube method, m1 = 1.923	–	998.77
101 kPa, Vibrating tube method, m1 = 3.259	–	1002.83
101 kPa, Vibrating tube method, m1 = 4.325	–	1006.27
10000 kPa, Constant-volume piezometry, m1 = 0.1707	–	998.64
10000 kPa, Constant-volume piezometry, m1 = 0.3259	–	998.93
10000 kPa, Constant-volume piezometry, m1 = 0.5862	–	999.44
10000 kPa, Constant-volume piezometry, m1 = 1.039	–	1000.4
10000 kPa, Constant-volume piezometry, m1 = 1.373	–	1001.17
10000 kPa, Constant-volume piezometry, m1 = 1.923	–	1002.54
10000 kPa, Constant-volume piezometry, m1 = 3.259	–	1006.31
10000 kPa, Constant-volume piezometry, m1 = 4.325	–	1009.52
25000 kPa, Constant-volume piezometry, m1 = 0.1707	–	1004.94
25000 kPa, Constant-volume piezometry, m1 = 0.3259	–	1005.15
25000 kPa, Constant-volume piezometry, m1 = 0.5862	–	1005.53
25000 kPa, Constant-volume piezometry, m1 = 1.039	–	1006.27
25000 kPa, Constant-volume piezometry, m1 = 1.373	–	1006.92
25000 kPa, Constant-volume piezometry, m1 = 1.923	–	1008.08
25000 kPa, Constant-volume piezometry, m1 = 3.259	1015.13	1011.45
25000 kPa, Constant-volume piezometry, m1 = 4.325	1018.32	1014.35
50000 kPa, Constant-volume piezometry, m1 = 0.1707	1018.48	1015.02
50000 kPa, Constant-volume piezometry, m1 = 0.3259	1018.55	1015.1
50000 kPa, Constant-volume piezometry, m1 = 0.5862	1018.73	1015.28
50000 kPa, Constant-volume piezometry, m1 = 1.039	1019.17	1015.72
50000 kPa, Constant-volume piezometry, m1 = 1.373	1019.6	1016.14
50000 kPa, Constant-volume piezometry, m1 = 1.923	1020.48	1016.98
50000 kPa, Constant-volume piezometry, m1 = 3.259	1023.44	1019.69
50000 kPa, Constant-volume piezometry, m1 = 4.325	1026.18	1022.07
75000 kPa, Constant-volume piezometry, m1 = 0.1707	1028.27	1024.62
75000 kPa, Constant-volume piezometry, m1 = 0.3259	1028.22	1024.58
75000 kPa, Constant-volume piezometry, m1 = 0.5862	1028.19	1024.56
75000 kPa, Constant-volume piezometry, m1 = 1.039	1028.3	–
75000 kPa, Constant-volume piezometry, m1 = 1.373	1028.51	–
75000 kPa, Constant-volume piezometry, m1 = 1.923	1029.06	–
75000 kPa, Constant-volume piezometry, m1 = 3.259	1031.32	–
75000 kPa, Constant-volume piezometry, m1 = 4.325	1033.57	–
100000 kPa, Constant-volume piezometry, m1 = 0.1707	1037.61	–
100000 kPa, Constant-volume piezometry, m1 = 0.3259	1037.41	–
100000 kPa, Constant-volume piezometry, m1 = 0.5862	1037.18	–
100000 kPa, Constant-volume piezometry, m1 = 1.039	1036.99	–
100000 kPa, Constant-volume piezometry, m1 = 1.373	1036.98	–
100000 kPa, Constant-volume piezometry, m1 = 1.923	1037.22	–
100000 kPa, Constant-volume piezometry, m1 = 3.259	1038.74	–
100000 kPa, Constant-volume piezometry, m1 = 4.325	1040.54	–
